Experimental data from patent US8932597B2 (priority 2008, dated 2015).

Columns and labels:
[1] = tested on: anti-M2 human monoclonal antibody Z3G1; format: binding
[2] = tested on: HuM2e antibody 23K12; format: binding, human

| Substance | Signal (peptides that bind to Z3G1) [1] | Signal (peptides that bind to 23K21 and 8I10) [2] | Signal (peptides that show specific binding to Z3G1) [1] |
| --- | --- | --- | --- |
| 516 (SLLTEVETPIRNEWGCRCPDSSD; epitope peptide) [compound 516] | 2449 | 1024 | – |
| 289 (MSLCTEVGMSLCTEV; epitope peptide) [compound 289] | 1093 | 2153 | – |
| 324 (SLCTEVGSLLTEV; epitope peptide) [compound 324] | – | 1772 | 1780 |
| 389 (SLLTEVETPYRNEWGCRCNDSSD; epitope peptide) [compound 389] | – | 1350 | 2303 |
| 573 (SLLTEVETPIRNEWGCRTNDSSD; epitope peptide) [compound 573] | – | 867 | 2374 |
| 636 (SLLTEVETPIRNEIGCRCNDSSD; epitope peptide) [compound 636] | – | 768 | 2402 |
| 646 (SLLTEVEGPIRNEWGCRCNDSSD; epitope peptide) [compound 646] | – | 763 | 2341 |
| 626 (SLLTEVETPIRNEWGCRCYDSSD; epitope peptide) [compound 626] | 2385 | 791 | – |
| 336 (SLLCEVGSLLTEV; epitope peptide) [compound 336] | – | 1674 | 2475 |
| 354 (SLLTEVGCSLLTEV; epitope peptide) [compound 354] | – | 1555 | 2511 |
| 411 (SLLTEVETPIRNEWGCRCNDMSD; epitope peptide) [compound 411] | 2405 | 744 | – |
| 286 (CSLLTEVGMSLLTCV; epitope peptide) [compound 286] | 2768 | 2311 | – |
| 296 (MSLLTEVGMCLLTEV; epitope peptide) [compound 296] | 2809 | 2023 | – |
| 456 (CSLLTECGMSLLCEV; epitope peptide) [compound 456] | 1640 | 1294 | – |
| 675 (SLLTEVNTPIRNEWGCRCNDSSD; epitope peptide) [compound 675] | – | 732 | 2150 |
| 381 (SLLQEVETPIRNEWGCRCNDSSD; epitope peptide) [compound 381] | – | 1399 | 2432 |
| 230 (CTPIRNEWGSRSNDSSCSLLTEVETC; epitope peptide) [compound 230] | – | 861 | 2168 |
| 596 (SLLTEVETPIRNEWFCRCNDSSD; epitope peptide) [compound 596] | – | 837 | 2493 |

| Substance | Signal (peptides that bind to Z3G1) [1] | Signal (peptides that bind to 23K21 and 8I10) [2] | Signal (peptides that show specific binding to Z3G1) [1] |
| --- | --- | --- | --- |
| 302 (ASLLTEVGSCLTEV; epitope sequence) [compound 302] | – | 1944 | 2770 |
| 453 (SLLTEVETPIRNEAGCRCNDSSD; epitope peptide) [compound 453] | – | 1311 | 2383 |
| 705 (SLLTEVKTPIRNEWGCRCNDSSD; epitope peptide) [compound 705] | – | 712 | 1905 |
| 215 (CSLLTEVETCLTEVETPIRNEWGSRC; epitope peptide) [compound 215] | – | 958 | 2328 |
| 547 (SLLTETETPIRNEWGCRCNDSSD; epitope peptide) [compound 547] | – | 919 | 1594 |
| 672 (SLLTEVETPIRNEWGRRCNDSSD; epitope peptide) [compound 672] | – | 735 | 2372 |
| 635 (SLLTEVEAPIRNEWGCRCNDSSD; epitope peptide) [compound 635] | – | 769 | 2325 |
| 588 (SLLTEVETPIRNEWGCRCNCSSD; epitope peptide) [compound 588] | 2505 | 848 | – |
| 384 (SLLTEVETPIRNEYGCRCNDSSD; epitope peptide) [compound 384] | – | 1377 | 2426 |
| 551 (SLLTEVATPIRNEWGCRCNDSSD; epitope peptide) [compound 551] | – | 914 | 2093 |
| 449 (SLNTEVETPIRNEWGCRCNDSSD; epitope peptide) [compound 449] | – | 1333 | 1908 |
| 552 (SLLTEVETPIRNEWGCYCNDSSD; epitope peptide) [compound 552] | – | 913 | 2397 |
| 290 (CSLLTEVGSLLTCV; epitope peptide) [compound 290] | – | 2142 | 2503 |
| 283 (CSLLTEVGSLLTEV; epitope peptide) [compound 283] | – | 2494 | 2903 |
| 657 (SLLTEVDTPIRNEWGCRCNDSSD; epitope peptide) [compound 657] | – | 751 | 2095 |
| 321 (ALLTEVETPIRNEWGCRCNDSSD; epitope peptide) [compound 321] | – | 1794 | 2225 |
| 446 (SLLTEVETPIRNEWGCRCND; epitope peptide) [compound 446] | 2276 | 738 | – |
| 226 (CTEVETPIRNEWGSRSCSLLTEVETC; epitope peptide) [compound 226] | – | 891 | 2140 |
